Data set [1] relates to MDA-MB-468 breast cancer cells. It is filed as cell-based, human. The following applies: 24 h. The text has this:
Fig. 1 Hydrocarbon stapling leads to increased EJ1 activity in comparison to HER-directed monoclonal therapies. a EJ1 sequence with PTD4 domain (underlined) corresponding to EGFR juxtamembrane domain sequence 643–663. Stabilized alpha helix (SAH) variations 1–5 beneath, with asterisks (*) indicating sites of staple. Control peptide (CP) with altered residues indicated by double underline. Stapled control (5) asterisks (*) indicate sites of staple. b Cartoon representation of EJ1 structure, with staple variation 5 highlighted. Positively charged residues indicated in blue, negatively charged residues in red. c Cartoon representation of CP structure, with staple variation highlighted. d Cell viability assay performed in MDA-MB-468 cells after 24 h comparing unstapled EJ1 versus staple variations SAH1, SAH4, and SAH5, with increasing concentrations. e Visualization of MDA-MB-468 cells untreated, treated with 10 µM EJ1, and 10 µM SAH5-EJ1 after 60 min. Scale bars represent 50 µm. f–h Cell viability assay performed in MDA-MB-468, MCF10A, or CHO cells over 3 days comparing treatment with Sapitinib (blue lines), SAH5-EJ1 (red lines), and SAH5-CP (grey lines). […] Data shown in d, f, g–i represent mean ± percent difference of assays performed in triplicate 1000–3000 cells were plated in 96-well plates (Falcon; Corning, NY) and allowed to adhere for 24–48 h prior to therapeutic introduction. Compounds were added and incubated on cells for 3 days in serum-containing media, followed by 2 h treatment with MTT (Sigma M5655) with the resulting formazan solubilized in DMSO. Absorbance was read at 540 nm by plate reader (uQuant, Bio-Tek Instruments). P-values were calculated from a one-way ANOVA.

The subject of another data set is MCF10A breast cells. Nature of the data set: Cell viability assay (MTT), MCF10A. It is filed as cell-based, human. The following applies: 72 h of treatment, maximum reduction. The text has this: (§1) Fig. 1 Hydrocarbon stapling leads to increased EJ1 activity in comparison to HER-directed monoclonal therapies. a EJ1 sequence with PTD4 domain (underlined) corresponding to EGFR juxtamembrane domain sequence 643–663. Stabilized alpha helix (SAH) variations 1–5 beneath, with asterisks (*) indicating sites of staple. Control peptide (CP) with altered residues indicated by double underline. Stapled control (5) asterisks (*) indicate sites of staple. b Cartoon representation of EJ1 structure, with staple variation 5 highlighted. Positively charged residues indicated in blue, negatively charged residues in red. c Cartoon representation of CP structure, with staple variation highlighted. d Cell viability assay performed in MDA-MB-468 cells after 24 h comparing unstapled EJ1 versus staple variations SAH1, SAH4, and SAH5, with increasing concentrations. e Visualization of MDA-MB-468 cells untreated, treated with 10 µM EJ1, and 10 µM SAH5-EJ1 after 60 min. Scale bars represent 50 µm. f–h Cell viability assay performed in MDA-MB-468, MCF10A, or CHO cells over 3 days comparing treatment with Sapitinib (blue lines), SAH5-EJ1 (red lines), and SAH5-CP (grey lines). […] Absorbance was read at 540 nm by plate reader (uQuant, Bio-Tek Instruments). P-values were calculated from a one-way ANOVA.

For another data set, the system named is CHO cells. Nature of the data set: Cell viability assay (MTT), CHO. The class given is cell-based, Chinese Hamster. The conditions noted are these: up to 3 days.
From the text: as §1

The test system of data set [2] is SUM149 inflammatory breast cancer cells. It is filed as cell-based. The following applies: SUM149, 10 µM. The protocol: 1000–3000 cells were plated in 96-well plates (Falcon; Corning, NY) and allowed to adhere for 24–48 h prior to therapeutic introduction. Compounds were added and incubated on cells for 3 days in serum-containing media, followed by 2 h treatment with MTT (Sigma M5655) with the resulting formazan solubilized in DMSO. Absorbance was read at 540 nm by plate reader (uQuant, Bio-Tek Instruments). P-values were calculated from a one-way ANOVA.
Fig. 4 SAH5-EJ1 effectively treats models of basal and inflammatory breast cancers while increasing survival. a Changes in tumor burden in breast cancer PDX mouse model TM01278 with various concentrations of intravenous SAH5-EJ1. Control represents water as a vehicle control. *p < 0.05 (Control vs 1 µg/g); **p < 0.01 (Control vs 1 µg/g and vs 10 µg/g). N = 6 for each condition. b Kaplan–Meier curve of breast PDX mouse model treated with control (blue) or either 1 or 10 µg/g SAH5-EJ1 (green and red, respectively) (red asterisks indicate time point at which mice could no longer receive injections due to site toxicity). Data shown represent mean. N = 6 for all groups. c Cell viability assay performed in SUM149 cells over 3 days comparing treatment with Sapitinib (blue) to SAH5-EJ1 (red) and SAH5-CP (grey). Solid lines represent 24 h; dashed lines represent 72 h. Data shown represent mean ± percent difference of assays performed in triplicate. d Kaplan–Meier curve of inflammatory breast cancer SUM149-injected mouse model treated with injected control (water) (blue) or either 0.5 or 5 µg/g SAH5-EJ1 (green and red, respectively). Data shown represent mean. N = 8 for all groups. e Changes in tumor burden in SUM149-generated tumors with various doses of SAH5-EJ1. Control represents water (blue). Arrow indicates transition from intravenous (IV) SAH5-EJ1 injections to intraperitoneal (IP) on day 66. **p < 0.01 (Control vs 0.5 µg/g and vs 5 µg/g). Data shown represent mean ± standard deviation. N = 8 for all groups. f Images of mouse tumors taken on Day 116. Arrowheads indicate tumor site. Representative images selected. […]

For data set [3] the following is noted: cited from earlier work. The text has this:
Despite variations in extracellular ligand binding abilities and intracellular tyrosine kinase activity, HER1-3 share homology in their juxtamembrane domain [15]. Within the juxtamembrane domain are sequences responsible for targeting HER proteins to the nucleus, binding to calcium/calmodulin, trafficking to the basolateral domain from the trans-Golgi network, and dimerization, an event required for HER activation and downstream signaling.

Like-named read-outs stand apart in the source and are kept apart here. Where a SMILES comes first, the peptide text is derived from it. Bridges are numbered along the chain shown (N, C = ends). Where no end group is shown, it is not given here. [ ]: non-standard residue; d: D form. R8 = C=CCCCCCC[C@@](C)(N)C(=O)O; S5 = C=CCCC[C@](C)(N)C(=O)O A value given as a limit tells only on which side of the number the result lay.

What is called IC50 is the concentration needed to halve the response being measured. Lower therefore signals higher potency. For orientation: cell viability means a per cent measure of how many cells are alive, often set against a control. High values mean better survival, low ones a greater loss of cells.

Consider `CC[C@H](C)[C@H](NC(=O)[C@H](Cc1c[nH]cn1)NC(=O)[C@H](CCCNC(=N)N)NC(=O)[C@H](CCCNC(=N)N)NC(=O)[C@H](CCCNC(=N)N)NC(=O)[C@H](CCSC)NC(=O)[C@H](Cc1ccccc1)NC(=O)[C@H](C)NC(=O)[C@H](CCCNC(=N)N)NC(=O)[C@H](C)NC(=O)[C@H](CCC(N)=O)NC(=O)[C@H](CCCNC(=N)N)NC(=O)[C@H](C)NC(=O)[C@H](C)NC(=O)[C@H](C)NC(=O)[C@H](CCCNC(=N)N)NC(=O)[C@H](C)NC(=O)[C@@H](N)Cc1ccc(O)cc1)C(=O)N[C@]1(C)CCCCCCC=CCCC[C@@](C)(C(=O)N[C@@H](CC(C)C)C(=O)N[C@@H](CC(C)C)C(=O)N[C@@H](CCC(N)=O)C(=O)N[C@@H](CCC(=O)O)C(=O)N[C@@H](CCCNC(=N)N)C(=O)N[C@@H](CCC(=O)O)C(N)=O)NC(=O)[C@H](CCCNC(=N)N)NC(=O)[C@H](CC(C)C)NC(=O)[C@H]([C@@H](C)O)NC(=O)[C@H](CCCNC(=N)N)NC(=O)[C@H](CCCCN)NC(=O)[C@H](CCCNC(=N)N)NC1=O` [SAH1-EJ1] (H-YARAAARQARAFMRRRHI[R8]RKRTLR[S5]LLQERE-NH2; staple 19-26), for which, in data set [1], 10 µM corresponded to half-maximal inhibition (IC50).
In data set [1], `CC[C@H](C)[C@@H]1NC(=O)[C@H](Cc2c[nH]cn2)NC(=O)[C@H](CCCNC(=N)N)NC(=O)[C@H](CCCNC(=N)N)NC(=O)[C@H](CCCNC(=N)N)NC(=O)[C@](C)(NC(=O)[C@H](Cc2ccccc2)NC(=O)[C@H](C)NC(=O)[C@H](CCCNC(=N)N)NC(=O)[C@H](C)NC(=O)[C@H](CCC(N)=O)NC(=O)[C@H](CCCNC(=N)N)NC(=O)[C@H](C)NC(=O)[C@H](C)NC(=O)[C@H](C)NC(=O)[C@H](CCCNC(=N)N)NC(=O)[C@H](C)NC(=O)[C@@H](N)Cc2ccc(O)cc2)CCCCCCC=CCCC[C@@](C)(C(=O)N[C@@H](CCCCN)C(=O)N[C@@H](CCCNC(=N)N)C(=O)N[C@H](C(=O)N[C@@H](CC(C)C)C(=O)N[C@@H](CCCNC(=N)N)C(=O)N[C@@H](CCCNC(=N)N)C(=O)N[C@@H](CC(C)C)C(=O)N[C@@H](CC(C)C)C(=O)N[C@@H](CCC(N)=O)C(=O)N[C@@H](CCC(=O)O)C(=O)N[C@@H](CCCNC(=N)N)C(=O)N[C@@H](CCC(=O)O)C(N)=O)[C@@H](C)O)NC(=O)[C@H](C(C)C)NC1=O` [SAH4-EJ1] (H-YARAAARQARAF[R8]RRRHIV[S5]KRTLRRLLQERE-NH2; staple 13-20) had an IC50 of 10 µM. In other words, the double-digit micromolar range.
Take `CNC(=O)CN1CCC(Oc2cc3c(Nc4cccc(Cl)c4F)ncnc3cc2OC)CC1` [Sapitinib, reference compound]: in the data set on MCF10A breast cells, the “reduction of cell viability” value was at most 70%. In the data set with CHO cells, the “efficacy / response in words” value is “limited efficacy”. Also, the cell viability entry is “no reduction in cell viability” in data set [2] (24 h) and 35% in data set [2] (3 days).
Regarding YARAAARQARAFMRRRHIVRKRTLRRLLQERE [EJ1], the IC50 in data set [1] was 18 µM. Besides, the “time to degradation when introduced to plasma” value in data set [3] is “less than 5 min”.

The values are drawn from publication PMC6582486, “Stapled EGFR peptide reduces inflammatory breast cancer and inhibits additional HER-driven models of cancer” (Journal of Translational Medicine, 2019).
